In patent US20230414732A1, “COMPOSITIONS OF EMBEDDED EPITOPE RANDOM PEPTIDES (EERP) FOR TREATMENT OF IMMUNE-MEDIATED CONDITIONS, AND METHODS OF USE” (PALENA THERAPEUTICS, INC., priority 2020, published 2023):

Key:
[1] = tested on: LPS-stimulated human monocytic cell line THP-1; assay: Inhibition of pro-inflammatory cytokine secretion by LPS-stimulated THP-1 cells (ELISA); assay type: cell-based; conditions: 1.5 hr pre-incubation, LPS 1 μg/mL 24 hr
Description: Cell-based assays. Human monocytic cell line THP-1 (ATCC, Manassas, VA) was cultured in RPMI media supplemented with 10% fetal bovine serum (FBS) and antibiotics penicillin/streptomycin in a 37° C. 5% CO 2 incubator. Cells were plated at 0.25×10^6 cells/well in a 24-well cell culture plate and pre-incubated for 1.5 hr with Glatopa, PT-001 or PT-002 at the final concentration 0.1 μg/mL or 10 μg/mL each, followed by addition of lipopolysaccharide (LPS) at the final concentration of 1 μg/mL and incubation for 24 hr in a 37° C. 5% CO2 incubator. Plates were centrifuged and supernatants (100 μL) were tested for levels of pro-inflammatory cytokines IL-1β, IL-6 and TNF-α using commercial ELISA kits (R&D System for IL-1β, BioLegend for IL-6 and TNF-α). […] Percent inhibition is calculated as 100-(cytokine concentration in presence of inhibitor/cytokine concentration without inhibitor*100).

[2] = tested on: MOG-induced EAE in C57B1/6 female mice; assay: Prophylactic treatment of MOG35-55-induced EAE, a mouse model of MS; assay type: in vivo; conditions: for Incidence of EAE: 500 μg single dose co-administered with MOG 35-55 in CFA, scored Day 7 to Day 28
Text: FIG. 2 is a graph showing prophylactic treatment of MOG-induced EAE in mice (an animal model for multiple sclerosis (MS)) using an EERP according to the present invention. EAE was induced in C57B1/6 female mice at 10 weeks of age by MOG35-55 (Control; depicted as diamonds) and treated prophylactically by co-administration of Glatopa (depicted as triangles), PT-001 (YFAK random copolymer, depicted as open squares), or PT-002 (EERP consisting of linear random polypeptide YFAK with the peptide AYKAAA embedded in it; depicted as cross) at 500 μg/dose each. Mice (12 per treatment group) were monitored for signs of disease for 28 days post immunization. Numbers on the ordinate represent mean clinical score of clinical symptoms monitored for the days shown on the abscissa.
FIG. 3 is a graph showing prophylactic treatment of MOG-induced EAE in mice using two different doses of an EERP according to the present invention. […] Mice (10 per treatment group) were monitored for signs of disease for 28 days post immunization. Numbers on the ordinate represent mean clinical score of clinical symptoms monitored for the days shown on the abscissa.
The EERP of the invention is further tested in vivo in a prophylactic model of MS, EAE, which is induced in female mice of C57B1/6J strain by MOG 35-55 encephalitogenic peptide co-administered with the EERP in Complete Freund's Adjuvant. […] Disease severity is based on clinical observations and is assessed on the scale from 0 to 5. […]
Prophylactic treatment of EAE, a mouse model of MS. […] Mice (12 per treatment group) were monitored daily in a blind fashion starting from Day 7 for signs of disease for 28 days post immunization. […]
Prophylactic treatment of EAE, a mouse model of MS, by 2 different doses of EERP. […] Mice (10 per treatment group) were monitored daily in a blind fashion starting from Day 7 for signs of disease for 28 days post immunization. […]

relapsing forms of MS = conditions: cited from earlier work
[3] = tested on: experimental allergic encephalomyelitis (EAE); conditions: mouse model for multiple sclerosis; cited from earlier work

Compound | Percent inhibition (%) IL-1b ([1]; 0.1 μg/mL compound) | Percent inhibition (%) IL-6 ([1]; 0.1 μg/mL compound) | Percent inhibition (%) TNF-a ([1]; 0.1 μg/mL compound) | Percent inhibition (%) IL-1b ([1]; 10 μg/mL compound) | Percent inhibition (%) IL-6 ([1]; 10 μg/mL compound) | Percent inhibition (%) TNF-a ([1]; 10 μg/mL compound) | Incidence of EAE [2] | Signs of disease (clinical score) ([2]; Example 2: 500 μg/dose, single dose in immunization emulsion, subcutaneous, 28 days post immunization) | Reduction in relapses (relapsing forms of MS) | Suppression of EAE [3]
C[N+]1(C)CCC(OC(=O)C(O)(c2ccccc2)C2CCCC2)C1 (centres unmarked) [PT-001] | 21% | −8% | −5% | 77% | 84% | 34% | 0% | did not exhibit any signs of disease |  | 
poly (Y, E, A, K) [Cop 1] |  |  |  |  |  |  |  |  | about 30% | capable of suppressing experimental allergic encephalomyelitis
glatiramer acetate [Glatopa] | 22% | −10% | −162% | 42% | −21% | −37% | 67% |  |  | 
